According to EP3426036B1, “CROP ENHANCEMENT” (priority 2016, dated 2017):

Columns and labels:
[1] = test system: detached wheat (Triticum aestivum var. Arina) leaves; experiment: Detached leaf transpiration and photosynthesis analysis; assay type: in vivo, Triticum aestivum L.
Description: Winter wheat (Triticum aestivum L.) of the variety Arina was used for the detached leaf transpiration assay. Plants were grown under optimum conditions in growth chambers until BBCH 12. The seedlings were dark-adapted for one hour; the second leaf was cut under water and directly placed into a 1.5 mL test-tube filled with 1 mL of compound I solution. The solution was prepared by dissolving compound I in dimethyl sulfoxide (DMSO) and diluting in water to the final concentrations of 3, 10, 50 and 100 mg L^-1. After weighing the initial weight of the leaf-tube-system, the leaves were placed in growth chambers at 25°C, 60% relative humidity and a light intensity of 150 µmol m^-2 s^-1 at 14 hours photoperiod. Transpiration was quantified by measuring the weight of the leaf-tube-system after 6 and 24 hours. Tubes without leaves solely filled with water were used to correct for evaporation. At 6 hours, the operating quantum efficiency of photosystem II (φPSII), which is a proxy of the photosynthetic activity, was monitored under growth conditions from the middle of the leaf using a PAM-2500 fluorometer (Walz, Effeltrich, Germany). The experimental design was a randomized complete block design with five replications for each treatment; one experimental unit was one leaf per test-tube. Statistical analysis (ANOVA) was done with Agstat 1.6 / ACSAP 4.29.

[2] = test system: spring wheat (Triticum aestivum L.) of the variety Taifun; experiment: Whole plant transpiration analysis; assay type: in vivo
Description: For whole plant transpiration analysis, spring wheat (Triticum aestivum L.) of the variety Taifun was grown under pest free conditions in 1.2 L growth columns filled with a field soil (sandy loam). Plants were daily watered to a target soil water content of 0.25 g H2O g^-1 dry soil. Plant growth and transpiration analysis was in growth chambers at 25/18 °C (day/night), 60 % relative humidity and a light intensity of 600 µmol m^-2 s^-1 at 14 hours of photoperiod. Transpiration was measured by monitoring the weight of the plant-pot-system with an automated weighing system. Application of compound I formulated as EC 100 at 75 g ha^-1 was done with a track sprayer at 200 L ha^-1 when plants were at BBCH 23. Transpiration was monitored at optimal watering for seven days after application, afterwards watering was stopped. The experimental layout was a randomized complete block design with nine replications per treatment; one experimental unit was two plants per pot. The transpiration before treatment was used as covariant for statistical analysis (ANOVA, Agstat 1.6 / ACSAP 4.29).

Spring wheat = experiment: Crop enhancement effect on wheat under drought conditions in the field (Example 1d); assay type: in vivo; conditions: non-irrigated; for Grain Yield / TGW: adjusted to 10% standard moisture; for No. of grains per ear: average of 20 ears per plot
Description: Spring wheat (plot size 30m^2) was treated with a single application at BBCH GS 41 (early boot stage) or 49 (first awns visible) with the compound of formula I at a rate of 75.0 g a.i/ha. […] This water supply condition was maintained during the reproductive stages of plant growth (BBCH 55-89). The trial was carried out with six replicates. At the end of the trial, a 20m^2 plot was harvested from each of five replicates. […]

Soybean plants = experiment: Crop enhancement effect on soybean under drought conditions, then optimal conditions (Example 2b); assay type: in vivo; conditions: for Dry weight of pods: 21 days drought then 25 days optimal conditions
Description: Soybean plants were grown in pots. The plants were treated at R1 (33 days after sewing) or three days before R3 (40 days after sewing) with the compound of formula I at 0.75 l/ha. An untreated control plant was also included. After treatment, the plants were subjected to drought conditions for 21 days before being allowed to grow under optimal conditions for a further 25 days. Eight replicates of the control and each treatment were harvested for analysis of yield and chlorophyll content. […]

[3] = 75.0 g a.i/ha applied at BBCH 41
[4] = 75.0 g a.i/ha applied at BBCH 49
[5] = 0.75 l/ha @ R1, 3 days after application
[6] = 0.75 l/ha @ R1, 7 days after application
[7] = 0.75 l/ha @ R1, 10 days after application
[8] = 0.75 l/ha @ R1, 14 days after application
[9] = 0.75 l/ha @ R1, 21 days after application
[10] = 0.75 l/ha @ R1, 24 days after application
[11] = 0.75 l/ha @ R1, 28 days after application
[12] = 0.75 l/ha @ R1, 31 days after application
[13] = 0.75 l/ha @ R1, 36 days after application
[14] = 0.75 l/ha @ R1, 41 days after application
[15] = 0.75 l/ha @ R1, 43 days after application
[16] = 0.75 l/ha @ R1, -1 days after application
[17] = 0.75 l/ha @ R3 - 3 days, 0 days after application
[18] = 0.75 l/ha @ R3 - 3 days, 3 days after application
[19] = 0.75 l/ha @ R3 - 3 days, 7 days after application
[20] = 0.75 l/ha @ R3 - 3 days, 14 days after application
[21] = 0.75 l/ha @ R3 - 3 days, 17 days after application
[22] = 0.75 l/ha @ R3 - 3 days, 21 days after application
[23] = 0.75 l/ha @ R3 - 3 days, 24 days after application
[24] = 0.75 l/ha @ R3 - 3 days, 29 days after application
[25] = 0.75 l/ha @ R3 - 3 days, 34 days after application
[26] = 0.75 l/ha @ R3 - 3 days, 36 days after application
[27] = 0.75 l/ha @ R3 - 3 days, -3 days after application
[28] = 0.75 l/ha @ R3 - 3 days, -7 days after application

Cn1cc(C(=O)Nc2cccc3c2C2CCC3C2=C(Cl)Cl)c(C(F)F)n1 (stereo not shown) [Compound I, benzovindiflupyr]
leaf transpiration ([1]; 3, 10, 50 and 100 mg L^-1, 0 to 24 hours): significantly decreased leaf transpiration in a dose-dependent manner | leaf transpiration ([1]; 3 and 10 mg L^-1, first 6 hours): decreased only little | leaf transpiration ([1]; 50 and 100 mg L^-1, within 6 hours of treatment): clearly visible | operating quantum efficiency of photosystem II (φPSII) ([1]; at 6 hours, 3 to 100 mg L^-1): did not show an impact | impact on biomass accumulation ([2]; EC 100 at 75 g ha^-1): no negative impact | transpiration decrease compared to untreated control plants ([2]; EC 100 at 75 g ha^-1, BBCH 23, within one day, constant soil water content): about 8% | shoot dry weight ([2]; EC 100 at 75 g ha^-1, end of the experiment, control plants same value): 6.3 ± 0.4 g plant^-1 | transpiration rate during soil drying compared to untreated control plants ([2]; EC 100 at 75 g ha^-1, irrigation withheld eight days after application): transiently higher transpiration rate | duration of transpiration decrease ([2]; EC 100 at 75 g ha^-1, optimal watering): consistent for at least seven days | Hectolitre weight (Spring wheat; [3]): 85.68 kg/Hl | Grain Yield (Spring wheat; [3]): 48.00 dT/Ha | TGW (Spring wheat; [3]): 41.56 g | No. of grains per ear (Spring wheat; [3]): 50.80 | Hectolitre weight (Spring wheat; [4]): 84.96 kg/Hl | Grain Yield (Spring wheat; [4]): 42.30 dT/Ha | TGW (Spring wheat; [4]): 41.46 g | No. of grains per ear (Spring wheat; [4]): 46.70 | Average plant colour (increase/decrease (%) compared to negative control treatment) (Soybean plants; [5]): 1.3% | Digital biomass (increase/decrease (%) compared to negative control treatment) (Soybean plants; [5]): 2.6% | Average plant colour (increase/decrease (%) compared to negative control treatment) (Soybean plants; [6]): 0.4% | Digital biomass (increase/decrease (%) compared to negative control treatment) (Soybean plants; [6]): 0.4% | Average plant colour (increase/decrease (%) compared to negative control treatment) (Soybean plants; [7]): -0.4% | Digital biomass (increase/decrease (%) compared to negative control treatment) (Soybean plants; [7]): 1.9% | Average plant colour (increase/decrease (%) compared to negative control treatment) (Soybean plants; [8]): -0.6% | Digital biomass (increase/decrease (%) compared to negative control treatment) (Soybean plants; [8]): 2.4% | Average plant colour (increase/decrease (%) compared to negative control treatment) (Soybean plants; [9]): -0.3% | Digital biomass (increase/decrease (%) compared to negative control treatment) (Soybean plants; [9]): -1.5% | Dry weight of pods (Soybean plants; 0.75 l/ha @ R1): 106.3 % of control | Average plant colour (increase/decrease (%) compared to negative control treatment) (Soybean plants; [10]): -0.3% | Digital biomass (increase/decrease (%) compared to negative control treatment) (Soybean plants; [10]): -1.1% | Average plant colour (increase/decrease (%) compared to negative control treatment) (Soybean plants; [11]): -1.6% | Digital biomass (increase/decrease (%) compared to negative control treatment) (Soybean plants; [11]): 1.2% | Average plant colour (increase/decrease (%) compared to negative control treatment) (Soybean plants; [12]): -3.0% | Digital biomass (increase/decrease (%) compared to negative control treatment) (Soybean plants; [12]): -3.7% | Average plant colour (increase/decrease (%) compared to negative control treatment) (Soybean plants; [13]): -0.5% | Digital biomass (increase/decrease (%) compared to negative control treatment) (Soybean plants; [13]): -6.3% | Average plant colour (increase/decrease (%) compared to negative control treatment) (Soybean plants; [14]): -1.4% | Digital biomass (increase/decrease (%) compared to negative control treatment) (Soybean plants; [14]): -9.2% | Average plant colour (increase/decrease (%) compared to negative control treatment) (Soybean plants; [15]): -2.0% | Digital biomass (increase/decrease (%) compared to negative control treatment) (Soybean plants; [15]): -6.9% | Average plant colour (increase/decrease (%) compared to negative control treatment) (Soybean plants; [16]): 0.3% | Digital biomass (increase/decrease (%) compared to negative control treatment) (Soybean plants; [16]): 1.5% | Average plant colour (increase/decrease (%) compared to negative control treatment) (Soybean plants; [17]): 0.4% | Digital biomass (increase/decrease (%) compared to negative control treatment) (Soybean plants; [17]): 3.6% | Average plant colour (increase/decrease (%) compared to negative control treatment) (Soybean plants; [18]): 1.3% | Digital biomass (increase/decrease (%) compared to negative control treatment) (Soybean plants; [18]): 4.3% | Average plant colour (increase/decrease (%) compared to negative control treatment) (Soybean plants; [19]): 0.4% | Digital biomass (increase/decrease (%) compared to negative control treatment) (Soybean plants; [19]): 2.7% | Average plant colour (increase/decrease (%) compared to negative control treatment) (Soybean plants; [20]): -0.2% | Digital biomass (increase/decrease (%) compared to negative control treatment) (Soybean plants; [20]): 1.5% | Average plant colour (increase/decrease (%) compared to negative control treatment) (Soybean plants; [21]): 1.4% | Digital biomass (increase/decrease (%) compared to negative control treatment) (Soybean plants; [21]): 4.4% | Average plant colour (increase/decrease (%) compared to negative control treatment) (Soybean plants; [22]): 0.2% | Digital biomass (increase/decrease (%) compared to negative control treatment) (Soybean plants; [22]): 4.4% | Dry weight of pods (Soybean plants; 0.75 l/ha @ R3 - 3 days): 105.8 % of control | Average plant colour (increase/decrease (%) compared to negative control treatment) (Soybean plants; [23]): 1.3% | Digital biomass (increase/decrease (%) compared to negative control treatment) (Soybean plants; [23]): -2.4% | Average plant colour (increase/decrease (%) compared to negative control treatment) (Soybean plants; [24]): -0.5% | Digital biomass (increase/decrease (%) compared to negative control treatment) (Soybean plants; [24]): -0.9% | Average plant colour (increase/decrease (%) compared to negative control treatment) (Soybean plants; [25]): -2.3% | Digital biomass (increase/decrease (%) compared to negative control treatment) (Soybean plants; [25]): -3.3% | Average plant colour (increase/decrease (%) compared to negative control treatment) (Soybean plants; [26]): -3.9% | Digital biomass (increase/decrease (%) compared to negative control treatment) (Soybean plants; [26]): 1.6% | Average plant colour (increase/decrease (%) compared to negative control treatment) (Soybean plants; [27]): 0.4% | Digital biomass (increase/decrease (%) compared to negative control treatment) (Soybean plants; [27]): 2.2% | Average plant colour (increase/decrease (%) compared to negative control treatment) (Soybean plants; [28]): 0.1% | Digital biomass (increase/decrease (%) compared to negative control treatment) (Soybean plants; [28]): -1.2%
